One assay addresses AeNobo-WT (Aedes aegypti, UniProt A0A1S4FIB3). Briefly: GST activity inhibition assay with 3,4-DNADCF, wild-type AeNobo. The class given is biochemical. As for the experimental part: We prepared a purified AeNobo recombinant protein (220-aa length) using an Escherichia coli protein expression system. The GST enzymatic activity was examined using the fluorogenic artificial substrate 3,4-dinitrobenzamidedichlorofluorescein (3,4-DNADCF).
The IC50 value was measured using an in vitro assay system as described previously. […] Five microliters of each diluted compound solution was mixed with 245 μL of solution A (100 mM sodium phosphate buffer at pH 6.5, 0.01% Tween 20, 2 mM GSH, and 50 ng/mL AeNobo-WT, 100 ng/mL AeNobo-E113A, and 200 ng/mL F39L). One hundred microliters of the mixture was dispensed into wells of a 96-well plate. One hundred microliters of solution B (0.2 μM 3,4-DNADCF and 100 mM sodium phosphate buffer at pH 6.5) was added to each well. In summary, the final reaction system comprised 100 mM sodium phosphate buffer (pH 6.5), 1 mM GSH, 0.005% Tween 20, 0.1 μM 3,4-DNACDF, and 25 ng/mL AeNobo, 50 ng/mL AeNobo-E113A, or 100 ng/mL AeNobo-F39L protein. The fluorescence intensity derived from 4-GS-3-NADCF, a product of this reaction, was measured for 3 min. IC50 values were estimated as described previously. The enzymatic assays under each condition were performed at least twice independently.
To identify inhibitors of AeNobo enzymatic activity, a high-throughput screening was performed as described in a previous study. Briefly, a core library of 9600 compounds obtained from the Drug Discovery Initiative, The University of Tokyo, was utilized for screening. In this screen, the enzymatic activity of AeNobo was detected using 3,4-DNADCF [29]. […] Then, 1 μL of solution B (4 μM 3,4-DNADCF, 100 mM sodium phosphate at pH 6.5, and 0.005% Tween 20) was added into each well. In summary, the reaction system comprised 5.6 ng/mL AeNobo protein, 2 μM 3,4-DNADCF, 1 mM GSH, 0.005% Tween 20, and 100 mM sodium phosphate at pH 6.5, together with each compound at 10 μM. The plate was incubated for 30 min at 25–27 °C and 2 μL of 10 mM N-ethylmaleimide was added into each well to stop the reaction. […] For the second screen, we assayed the IC50 values of the compounds against the enzymatic activity of AeNobo.

For a further assay, the target named is AeNobo-E113A (Aedes aegypti, UniProt A0A1S4FIB3, E164K). Briefly: GST activity inhibition assay with 3,4-DNADCF, AeNobo-E113A. The class given is biochemical. An excerpt:
The importance of the Glu-113–flavonoid hydrogen bond for flavonoid binding was biochemically examined with a recombinant mutated AeNobo protein carrying an E113A aa substitution (AeNobo-E113A).
(§1) pCold III plasmids expressing the AeNobo-E113A and AeNobo-F39L were constructed using KOD-Plus-Mutagenesis Kit (Toyobo). The following primers were used: E113A-F (5′-[…]-3′) and E113A-R (5′-[…]-3′) for AeNobo-E113A and F39L-F (5′-[…]-3′) and F39L-R (5′-[…]-3′) for AeNobo-F39L. We conducted inverse PCR using KOD-plus polymerase, pColdIII/AeNobo-WT plasmid, and the primer pair described above under the following conditions: pre-denaturation at 94 °C for 2 min, denaturation at 98 °C for 10 s, and extension at 68 °C for 6 min for 6 cycles. The PCR products were treated with DpnI at 37 °C for 1 h, followed by self-ligation using T4 polynucleotide kinase and Ligation High. After the transformation of DH5α bacteria using the ligation products, we extracted plasmid DNA from the colonies and verified their sequences to confirm whether the appropriate point mutations were introduced.
The IC50 value was measured using an in vitro assay system as described previously. A dilution series of compounds, ranging from 2.5 mM to 0.127 μM for DMG and from 2.5 mM to 4.9 μM for other compounds, was prepared by 2-fold serial dilution in DMSO. Five microliters of each diluted compound solution was mixed with 245 μL of solution A (100 mM sodium phosphate buffer at pH 6.5, 0.01% Tween 20, 2 mM GSH, and 50 ng/mL AeNobo-WT, 100 ng/mL AeNobo-E113A, and 200 ng/mL F39L). One hundred microliters of the mixture was dispensed into wells of a 96-well plate. One hundred microliters of solution B (0.2 μM 3,4-DNADCF and 100 mM sodium phosphate buffer at pH 6.5) was added to each well. In summary, the final reaction system comprised 100 mM sodium phosphate buffer (pH 6.5), 1 mM GSH, 0.005% Tween 20, 0.1 μM 3,4-DNACDF, and 25 ng/mL AeNobo, 50 ng/mL AeNobo-E113A, or 100 ng/mL AeNobo-F39L protein. The fluorescence intensity derived from 4-GS-3-NADCF, a product of this reaction, was measured for 3 min. IC50 values were estimated as described previously. The enzymatic assays under each condition were performed at least twice independently.

Assay [1] deals with Ae. aegypti 1st instar larvae. The conditions noted are these: cited from earlier work.
A further assay has as its target AeNobo-F39L (Aedes aegypti, UniProt A0A1S4FIB3, F90L). As to the kind of experiment: GST activity inhibition assay with 3,4-DNADCF, AeNobo-F39L. The class given is biochemical. How it is done:
as §1
The IC50 value was measured using an in vitro assay system as described previously. A dilution series of compounds, ranging from 2.5 mM to 0.127 μM for DMG and from 2.5 mM to 4.9 μM for other compounds, was prepared by 2-fold serial dilution in DMSO. […] The fluorescence intensity derived from 4-GS-3-NADCF, a product of this reaction, was measured for 3 min. […]

[2] abbreviates: Table S2, estrogenic compounds against AeNobo, read-out: IC50 (μM) (mean ± s.d.).
Setting [3] is: Table 1, GSH conjugation of 3,4-DNADCF, read-out: IC50 to AeNobo-WT (μM) (mean ± s.d.).
Setting [4] is: read-out: IC50 (μM) (mean ± s.d.).
Where [5] appears, read: Table S5, luteolin derivatives against AeNobo, read-out: IC50 (μM) (mean ± s.d.).

Read-outs that look alike come from different tables or passages of the source. Where only a bound is given, the exact number is not on record here.

Chain of AeNobo-WT (A0A1S4FIB3 entry or part of it): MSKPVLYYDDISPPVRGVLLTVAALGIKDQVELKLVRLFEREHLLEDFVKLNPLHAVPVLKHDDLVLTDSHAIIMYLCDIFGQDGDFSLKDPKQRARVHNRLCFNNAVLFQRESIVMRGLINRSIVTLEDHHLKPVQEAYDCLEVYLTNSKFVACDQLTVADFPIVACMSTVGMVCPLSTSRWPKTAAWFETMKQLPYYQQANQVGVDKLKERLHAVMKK
Chain of AeNobo-E113A (A0A1S4FIB3 entry or part of it E164K): as the sequence (A0A1S4FIB3 entry or part of it) above, with E113K counted along it
Chain of AeNobo-F39L (A0A1S4FIB3 entry or part of it F90L): as the sequence (A0A1S4FIB3 entry or part of it) above, with F39L counted along it

On AeNobo-WT, `ClC(Cl)=C(c1ccc(Cl)cc1)c1ccc(Cl)cc1` [1,1-Dichloro-2,2-bis(4-chlorophenyl)ethene] yielded an IC50 of over 25 µM. `CCCCOC(=O)c1ccccc1C(=O)OCc1ccccc1` [1-benzyl 2-butyl benzene-1,2-dicarboxylate]: the IC50 on AeNobo-WT (setting [2]) was over 25 µM.

On AeNobo-WT, `Cn1c(N)nc2ncc(-c3ccccc3)cc21` [2-Amino-1-methyl-6-phenylimidazo[4,5-b]pyridine] yielded an IC50 of over 25 µM. As to `O=C1CC(c2ccccc2O)Oc2ccccc21` (stereo not drawn) [2′-Hydroxyflavanone], the IC50 against AeNobo-E113A is over 25 µM; on AeNobo-WT (setting [3]), 4.76 ± 0.37 µM.

On to `O=c1c(-c2ccc(O)cc2)coc2ccccc12` [3-(4-Hydroxyphenyl)-4H-chromen-4-one], for which, on AeNobo-WT (3,4-DNADCF), the “Inhibition of enzymatic activity of AeNobo (in words)” value (from here on “Inhibition”) is “did not inhibit”. The IC50 at AeNobo-WT (setting [4]) is over 25 µM.

Turning to `CC(C)(C)CC(C)(C)c1ccc(O)cc1` [4-(2,4,4-trimethylpentan-2-yl)phenol], the 50% inhibitory concentration (IC50) at AeNobo-WT (setting [2]) is over 25 µM. As for `Oc1ccc(C(c2ccc(O)cc2)C(Cl)(Cl)Cl)cc1` [4-[2,2,2-trichloro-1-(4-hydroxyphenyl)ethyl]phenol], the IC50 against AeNobo-WT was over 25 µM. Regarding `CC1=CC[C@@H]2C[C@H]1C(c1ccc(O)cc1)OC2(C)C` (stereo partly drawn) [4-[(1R,5R)-4,4,8-trimethyl-3-oxabicyclo[3.3.1]non-7-en-2-yl]phenol], on AeNobo-WT (setting [2]), the IC50 is over 25 µM.

As for `CC1=CC(C)[C@@]2(CO)COC(c3ccc(O)cc3)[C@@H]1C2C` (stereo partly drawn) [4-[(1R,5R)-5-(hydroxymethyl)-6,8,9-trimethyl-3-oxabicyclo[3.3.1]non-7-en-2-yl]phenol], the IC50 at AeNobo-WT (setting [2]) was over 25 µM. The molecule `O=c1cc(-c2ccc(O)c(O)c2)oc2cccc(O)c12` [5,3’,4’-Trihydroxyflavone, 5,3′,4′-trihydroxyflavone] yielded an IC50 against AeNobo-WT of 1.64 ± 0.1 µM. The “Inhibition” value at AeNobo-WT (3,4-DNADCF) is recorded as “retained inhibitory activity”.

On to `O=c1cc(-c2ccc(O)c(O)c2)oc2cc(O)ccc12` [7,3’,4’-Trihydroxyflavone, 7,3′,4′-trihydroxyflavone], for which the “Inhibition” value on AeNobo-WT (3,4-DNADCF) is “retained inhibitory activity”. For the same molecule, the IC50 at AeNobo-WT (setting [4]) is 10.3 ± 0.47 µM. At AeNobo-WT, `O=c1c(-c2ccccc2)coc2cc(O)ccc12` [7-Hydroxyisoflavone] gave an IC50 of 5.61 ± 0.3 µM. In addition, the “Inhibition” value at AeNobo-WT (3,4-DNADCF) was “retained inhibitory activity”. Consider `C[C@]12CC[C@@H]3c4ccc(O)cc4CC[C@H]3[C@@H]1C/C(=C\c1ccccc1)C2=O` [16-benzylidene estrone], for which the IC50 on AeNobo-WT (setting [2]) was over 25 µM. `Cc1cc(-c2ccc3c(c2)CC[C@]3(C)O)cc(C)c1O` [(S)-5-(4-hydroxy-3,5-dimethylphenyl)-1-methyl-2,3-dihydro-1H-inden-1-ol]: the IC50 on AeNobo-WT (setting [2]) was over 25 µM. On to `O=c1cc(-c2ccc(O)cc2)oc2cc(O)cc(O)c12` [Apigenin], for which the IC50 at AeNobo-WT (setting [5]) is over 25 µM; on AeNobo-WT (text and figures, 3,4-DNADCF, read-out: IC50 against AeNobo (WT)), over 25 µM. On to `COc1ccc(-c2coc3cc(O)cc(O)c3c2=O)cc1` [Biochanin A], for which the IC50 on AeNobo-E113A (Table 1, GSH conjugation of 3,4-DNADCF, read-out: IC50 to AeNobo-E113A (μM) (mean ± s.d.)) is over 25 µM; on AeNobo-WT (setting [3]), 1.84 ± 0.06 µM. In the case of `CC(C)(c1ccc(O)cc1)c1ccc(O)cc1` [Biosphenol A, 4,4'-propane-2,2-diyldiphenol], the IC50 at AeNobo-WT is over 25 µM. On to `O=c1cc(-c2ccccc2)oc2cc(O)cc(O)c12` [Chrysin], for which, on AeNobo-WT (3,4-DNADCF), the “Inhibition” value is recorded as “did not exhibit any inhibitory activity”. Besides, the IC50 at AeNobo-WT (setting [5]) is over 25 µM.

For `Oc1cc(O)c2cc(O)c(-c3ccc(O)c(O)c3)[o+]c2c1` [Cyanidin chloride], the figures for the IC50 against AeNobo-E113A and on AeNobo-WT (setting [3]) were over 25 µM and 2.15 ± 0.24 µM, respectively.

With `O=c1c(-c2ccc(O)cc2)coc2cc(O)ccc12` [Daidzein], the IC50 against AeNobo-E113A is over 25 µM. For the same molecule, on AeNobo-WT, half-maximal inhibition (IC50) was put at 3.87 ± 0.52 µM. In addition, in assay [1], the “Larvicidal activity against Ae. aegypti” value was “exhibit larvicidal activity” and the “Larvicidal activity toward Ae. aegypti” value is “known to exhibit larvicidal activity”.

Consider `O=c1c(O)c(-c2ccc(O)c(O)c2)oc2cc(O)ccc12` [Fisetin], for which the IC50 is over 25 µM against AeNobo-E113A and 1.69 ± 0.04 µM at AeNobo-WT (setting [3]). As for `O=c1c(-c2ccc(O)cc2)coc2cc(O)cc(O)c12` [Genistein], the IC50 at AeNobo-WT (setting [4]) came to 1.86 ± 0.41 µM. Also, the “Larvicidal activity against Ae. aegypti” value in assay [1] was “exhibit larvicidal activity”.

Consider `O=c1c(O)c(-c2ccc(O)cc2)oc2cc(O)cc(O)c12` [Kaempferol], for which the IC50 against AeNobo-E113A was over 25 µM; at AeNobo-WT (setting [3]), 4.91 ± 1.69 µM. For the molecule `O=c1cc(-c2ccc(O)c(O)c2)oc2cc(O)cc(O)c12` [Luteolin], the IC50 is 35.8 ± 5.73 µM against AeNobo-E113A and 1.58 µM at AeNobo-F39L. Besides, the “Larvicidal activity toward Ae. aegypti” value in assay [1] was “known to exhibit larvicidal activity”. Turning to `O=c1c(O)c(-c2cc(O)c(O)c(O)c2)oc2cc(O)cc(O)c12` [Myricetin], the IC50 on AeNobo-E113A was over 25 µM; against AeNobo-WT, 2.91 ± 0.27 µM. For the molecule `O=C1C[C@@H](c2ccc(O)cc2)Oc2cc(O)cc(O)c21` [Naringenin], the IC50 at AeNobo-WT (setting [3]) was over 25 µM. As for `COc1cc(-c2[o+]c3cc(O)cc(O)c3cc2O)cc(O)c1O` [Petunidin], the IC50 against AeNobo-E113A was over 25 µM; at AeNobo-WT (setting [3]) it was 14.9 ± 2.01 µM.

Consider `O=c1c(O)c(-c2ccc(O)c(O)c2)oc2cc(O)cc(O)c12` [Quercetin], for which the IC50 is over 25 µM at AeNobo-E113A and 0.963 ± 0.094 µM on AeNobo-WT. Take `Oc1ccc(/C=C/c2cc(O)cc(O)c2)cc1` [Resveratrol]: on AeNobo-WT (setting [2]), the IC50 was over 25 µM.

For the molecule `Oc1ccc([C@H]2COc3cc(O)ccc3C2)cc1` [S-equol], the IC50 on AeNobo-WT (setting [3]) is over 25 µM. Take `COc1ccc(-c2oc3cc(O)cc(O)c3c(=O)c2O)cc1O` [Tamarixetin]: at AeNobo-WT (setting [3]), the IC50 was over 25 µM.

Take `C[C@H]1CCCC(=O)CCC/C=C/c2cc(O)cc(O)c2C(=O)O1` [Zearalenone]: the IC50 against AeNobo-WT was over 25 µM.

Regarding `O=C(c1ccc(O)cc1O)c1ccc(O)cc1O` [bis(2,4-dihydroxyphenyl)methanone], the IC50 at AeNobo-WT (setting [2]) was over 25 µM. For the molecule `CCCCOC(=O)c1ccc(O)cc1` [butyl 4-hydroxybenzoate], the IC50 at AeNobo-WT (setting [2]) was over 25 µM.

On to `CCCOC(=O)c1ccc(O)cc1` [propyl 4-hydroxybenzoate], for which, at AeNobo-WT (setting [2]), the IC50 was over 25 µM. As to `C[C@H]1CCC[C@H](O)CCCCCc2cc(O)cc(O)c2C(=O)O1` [α-zearalanol], the IC50 on AeNobo-WT (setting [2]) was over 25 µM. On to “(+)-catechin hydrate [(+) Catechin hydrate]”, for which the IC50 on AeNobo-WT (setting [3]) is over 25 µM.

(Values after PMC8851771, “Molecular action of larvicidal flavonoids on ecdysteroidogenic glutathione S-transferase Noppera-bo in Aedes aegypti” (BMC Biology, 2022).)
